Measurements from patent EP0982317A1, “Bivalent inhibitors of the proteasome” (Max-Planck-Gesellschaft zur Förderung der Wissenschaften …, priority 1998, dated 2000).
Read-outs that look alike come from different tables or passages of the source. Where a SMILES comes first, the peptide text is derived from it. [ ]: non-standard residue; d: D form. Nle = CCCC[C@H](N)C(=O)O

Assays:
Assay type in all cases: biochemical
[1] = target: T1, yeast proteasome β1/β1' (PGPH) (Saccharomyces cerevisiae, UniProt P38624); experiment: Proteasome assay, PGPH activity (fluorogenic substrate Z-Leu-Leu-Gly-βNA); settings: 6.67 nM proteasome, Tris-buffer pH 7.5, incubated with inhibitor 1 h at 37°C, Z-Leu-Leu-Gly-βNA 40 µM, read-out: Inhibition of yeast proteasome (IC50) β1/β1'
Experimental: (§1) A solution of proteasome from Saccharomyces cerivisiae in Tris-buffer (pH 7.5; 450 µl; 6.67 nM for PGPH, 5.56 nM for trypsin-like and 1.11 nM for chymotrypsin-like activity) was incubated with the inhibitors at varying concentrations ([…]) for 1 h at 37°C. The fluorogenic substrates for PGPH (Z-Leu-Leu-Gly-βNA, 40 µM), trypsin-like (Bz-Phe-Val-Arg-AMC, 8 µM) and chymotrypsin-like assays (Suc-Leu-Leu-Val-Tyr-AMC, 8 µM) were dissolved in the same Tris-buffer with a minimum amount of DMSO and added to the enzyme solution at 37 °C to reach a final volume of 500 µl. Fluorescence excitation/emission wavelengths were 360 nm/460 nm for AMC and 335 nm/410 nm for βNA. The rates of hydrolysis were monitored by the fluorescence increase and the initial linear portions of curves (100-300 sec) were used to calculate the IC50 values.

[2] = target: T2, yeast proteasome β2/β2' (trypsin-like activity) (Saccharomyces cerevisiae, UniProt P25043); experiment: Proteasome assay, trypsin-like activity (fluorogenic substrate Bz-Phe-Val-Arg-AMC); design: Three of the seven different β-type subunits are processed at the threonine-1 residue; settings: 5.56 nM proteasome, Tris-buffer pH 7.5, incubated with inhibitor 1 h at 37°C, Bz-Phe-Val-Arg-AMC 8 µM, read-out: Inhibition of yeast proteasome (IC50) β2/β2'
Experimental: as §1

[3] = target: T3, yeast proteasome β5/β5' (chymotrypsin-like activity) (Saccharomyces cerevisiae, UniProt P30656); experiment: Proteasome assay, chymotrypsin-like activity (fluorogenic substrate Suc-Leu-Leu-Val-Tyr-AMC); design: Three of the seven different β-type subunits are processed at the threonine-1 residue; settings: 1.11 nM proteasome, Tris-buffer pH 7.5, incubated with inhibitor 1 h at 37°C, Suc-Leu-Leu-Val-Tyr-AMC 8 µM, read-out: Inhibition of yeast proteasome (IC50) β5/β5'
Experimental: as §1

[4] = target: T1, yeast proteasome β1/β1' (PGPH); experiment: Proteasome assay, PGPH activity (fluorogenic substrate Z-Leu-Leu-Gly-βNA); design: endogenous in cells; host or cells: Saccharomyces cerevisiae (isolated native complex; purification, strain and supplier not described); settings: 6.67 nM proteasome, Tris-buffer pH 7.5, incubated with inhibitor 1 h at 37°C, Z-Leu-Leu-Gly-βNA 40 µM, read-out: Inhibition of yeast proteasome (IC50) β1/β1'
Experimental: as §1

[5] = target: T2, yeast proteasome β2/β2' (trypsin-like activity); experiment: Proteasome assay, trypsin-like activity (fluorogenic substrate Bz-Phe-Val-Arg-AMC); design: endogenous in cells; host or cells: Saccharomyces cerevisiae (isolated native complex; purification, strain and supplier not described); settings: 5.56 nM proteasome, Tris-buffer pH 7.5, incubated with inhibitor 1 h at 37°C, Bz-Phe-Val-Arg-AMC 8 µM, read-out: Inhibition of yeast proteasome (IC50) β2/β2'
Experimental: as §1

[6] = target: T3, yeast proteasome β5/β5' (chymotrypsin-like activity); experiment: Proteasome assay, chymotrypsin-like activity (fluorogenic substrate Suc-Leu-Leu-Val-Tyr-AMC); design: endogenous in cells; host or cells: Saccharomyces cerevisiae (isolated native complex; purification, strain and supplier not described); settings: for IC50: chymotrypsin-like activity, 1.11 nM proteasome, Tris-buffer pH 7.5, incubated with inhibitor 1 h at 37°C, Suc-Leu-Leu-Val-Tyr-AMC 8 µM, read-out: Inhibition of yeast proteasome (IC50) β5/β5'
Experimental: as §1

Molecule | IC50 [1] [µM] | IC50 [2] [µM] | IC50 [3] [µM] | IC50 [4] [µM] | IC50 [5] [µM] | IC50 [6] [µM] | increase in binding affinity ([6]; chymotryptic activity, compared to inhibitor 1 or to the monovalent inhibitor 2)
CCCC[C@@H](C=O)NC(=O)[C@H](CC(C)C)NC(=O)[C@H](CC(C)C)NC(C)=O [Inhibitor 1, Ac-Leu-Leu-Nle-H] (Ac-Leu-Leu-[Nle]-aldehyde) | > 100 | > 100 | 2.1 |  |  |  | 
(PEG)18-25-[NH-CO-(CH2)2-CO-Leu-Leu-Nle-H]2 [Inhibitor 3] |  |  |  | > 100 | > 100 | 0.017 | about two orders of magnitude
HOOC-(CH2)2-CO-NH-(PEG)18-25-NH-(CH2)2-CO-Leu-Leu-Nle-H [Inhibitor 2] |  |  |  | > 100 | > 100 | 1.8 | 
